Laboratory results taken from article PMC11882969 (Nature Communications, 2025).

Target: CB1 (rCB1) (Rattus norvegicus, UniProt P20272)
Assay: Single-point radioligand displacement screen
Assay type: binding
Details: for % 1H-CP-55,940 displacement (mean) from single point screen: 10 µM, 1 µM or 300 nM by cell colour (not visible); for rep1_displacement / rep2_displacement / rep3_displacement: Figure 1c source data; for rep1_displacement: replicate 1; for rep2_displacement: replicate 2; for rep3_displacement: replicate 3

Chain of CB1 (rCB1) (P20272 whole entry): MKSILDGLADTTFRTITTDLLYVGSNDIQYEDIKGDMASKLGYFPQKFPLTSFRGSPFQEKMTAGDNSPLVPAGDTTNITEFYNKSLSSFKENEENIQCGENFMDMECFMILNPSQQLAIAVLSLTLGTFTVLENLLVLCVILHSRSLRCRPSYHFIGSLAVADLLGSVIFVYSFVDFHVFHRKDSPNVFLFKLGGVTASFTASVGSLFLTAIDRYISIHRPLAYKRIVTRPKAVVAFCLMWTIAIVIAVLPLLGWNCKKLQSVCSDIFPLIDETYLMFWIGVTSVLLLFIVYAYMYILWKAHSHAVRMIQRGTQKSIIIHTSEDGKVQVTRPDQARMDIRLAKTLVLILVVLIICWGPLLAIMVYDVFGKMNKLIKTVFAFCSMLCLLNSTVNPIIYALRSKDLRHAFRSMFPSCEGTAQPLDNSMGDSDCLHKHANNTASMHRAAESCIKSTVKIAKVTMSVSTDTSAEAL

Structure (SMILES)	% 1H-CP-55,940 displacement (mean) from single point screen	also measured
Cc1cc(C(=O)N2CC3(CCC3)C2c2ccco2)nn1-c1cccc(C(F)(F)F)c1 (stereo not drawn) [10_10]	94.41%	–
Cc1cc(C(=O)N2CC3(CCC3)[C@@H]3COC[C@@H]32)nn1-c1cccc(C(F)(F)F)c1 [10_14]	91.30%	–
COC(=O)[C@@H]1[C@@H]2CCC[C@@H]2CN1C(=O)c1nn(-c2cccc(C(F)(F)F)c2)c2c1CCC2 [10_17]	98.24%	–
Cc1cc(C(=O)N2CC3(CCC3)C2C2CCOCC2)nn1-c1cccc(C(F)(F)F)c1 (stereo not drawn) [10_19]	82.61%	–
CC1(C)CN(C(=O)c2cn(-c3cccc(C(F)(F)F)c3)nn2)C1c1cccs1 (stereo not drawn) [10_20]	52.38%	–
CCOC(=O)C1CN(C(=O)c2cc(C)n(-c3cccc(C(F)(F)F)c3)n2)CC12CC2 (stereo not drawn) [10_21]	83.57%	–
O=C(c1cn(-c2cccc(C(F)(F)F)c2)nn1)N1CC2(CCC2)C1C1CCCO1 (stereo not drawn) [10_23]	25.67%	–
C[C@@H](COC(=O)c1nn(C)c(=O)c2ccccc12)Oc1ccc(Cl)cc1 [0450_14]	28.77%	–
Cn1nc(-c2nnc(C(C)(C)Oc3cccc(Cl)c3)o2)c2ccccc2c1=O [0450_22]	43.54%	–
Cn1nc(-c2nnc(C(C)(C)Oc3ccc(C#N)cc3)o2)c2ccccc2c1=O [0450_23]	-19.18%	–
Cn1nc(-c2nnc(CCOc3ccc(Cl)cc3)o2)c2ccccc2c1=O [0450_24]	12.07%	–
Cn1nc(Cc2nnc(C(C)(C)Oc3ccc(Cl)cc3)o2)c2ccccc2c1=O [0450_25]	-12.39%	–
Cn1nc(CNC(=O)C(C)(C)Oc2ccc(Cl)cc2)c2ccccc2c1=O [0450_26]	7.64%	–
COC(=O)[C@H](C)NC(=O)c1cc(C)n(-c2cccc(F)c2)n1 [1486_11]	-7.46%	–
COC(=O)C(NC(=O)c1cc(-c2cccc(F)c2)c2ccccc2c1)c1cccs1 (stereo not drawn) [1486_17]	8.92%	–
O=C(Nc1cccc2ccsc12)c1ccn(-c2cccc(F)c2)n1 [1486_22]	-3.59%	–
Cc1nc(CC2CC2)oc1-c1nc(Cc2ccc3c(c2)OCCCO3)no1 [7019_1]	6.40%	–
Cc1nc(CC2CC2)oc1-c1nc(Cn2c(C(C)C)nc3ccccc32)no1 [7019_26]	42.67%	–
CCCCc1nc(C)c(Cc2nc(Cc3ccc4c(c3)OCO4)no2)s1 [7019_27]	45.01%	–
Cc1nn(CC2CC2)c(C)c1Cc1nc(Cc2ccc3c(c2)OCO3)no1 [7019_28]	36.27%	–
COCc1nc(-c2nc(Cc3ccc4c(c3)OCO4)no2)c(-c2ccccc2)s1 [7019_29]	24.10%	–
c1ccc(-c2nc(C3CC3)sc2-c2nnc(-c3ccc4c(c3)OCO4)o2)cc1 [7019_32]	39.89%	–
CCOC(=O)c1nc(-c2nc(Cc3cc4c(cc3Br)OCO4)no2)cs1 [7019_300]	3.83%	–
CC(C)(C)c1c(C(=O)OCC2CSc3ccccc3O2)cnn1Cc1ccccc1 (stereo not drawn) [7800_22]	73.02%	–
Cc1c(C(=O)OCC2CSc3ccccc3O2)cnn1Cc1ccc2ccccc2c1 (stereo not drawn) [7800_24]	50.03%	–

Structure (SMILES)	% 1H-CP-55,940 displacement (mean) from single point screen	also measured
Cc1c(C(=O)OCC2CSc3ccccc3O2)cnn1Cc1cccc(C(F)(F)F)c1 (stereo not drawn) [7800_25]	58.49%	–
Cc1c(C(=O)OCC2CSc3ccccc3S2)cnn1Cc1ccccc1 (stereo not drawn) [7800_26]	69.84%	–
O=C(OCC1CSc2ccccc2O1)c1cnn(Cc2ccccc2)c1Br (stereo not drawn) [7800_27]	70.31%	–
Cc1nn(Cc2ccccc2Cl)c(C)c1C(=O)OCC1CSc2ccccc2O1 (stereo not drawn) [7800_28]	55.46%	–
CCCCCCC1(c2cc(O)c3c(c2)OC(C)(C)[C@@H]2CC[C@@H](O)C[C@@H]32)CCC1 [AM2389, reference compound]	–	rep1_displacement: 99.9; rep2_displacement: 99.9; rep3_displacement: 99.8
CCc1nc(C(=O)NC(c2ccccc2)c2cccnc2)nn1-c1ccccc1Cl (stereo not drawn) [compound 00051]	16.02%	rep1_displacement: 20.4; rep2_displacement: 19.7; rep3_displacement: 7.9
N#CCCn1ncc(C(=O)OCC2CSc3ccccc3O2)c1-c1ccccc1 (stereo not drawn) [compound 0372]	41.18%	–
Cc1nc(C2CC2)oc1-c1nc(Cc2ccc3c(c2)OCO3)no1 [compound 0682]	-7.41%	–
N#Cc1cccc(-n2ccc(C(=O)OCC3CSc4ccccc4O3)n2)c1 (stereo not drawn) [compound 2666]	30.46%	–
Cc1c(C(=O)OCC2CSc3ccccc3O2)cnn1-c1ccccc1 (stereo not drawn) [compound 3189]	46.85%	–
COC(=O)C(NC(=O)c1cc(C)n(-c2ccccc2)n1)c1cccnc1 (stereo not drawn) [compound 03453]	-5.45%	–
O=C(OCc1nc2ccccc2o1)c1cnn(Cc2ccccc2Cl)c1 [compound 3652]	32.00%	–
Cc1c(C(=O)N(C)CC2COc3ccccc3O2)cnn1-c1ccccc1 (stereo not drawn) [compound 4148]	11.41%	–
Cc1c(C(=O)OCC2CN(c3ccccc3)C(=O)O2)cnn1Cc1ccccc1 (stereo not drawn) [compound 5081]	31.79%	–
O=C(NCC1CSc2ccccc2O1)c1ncc(Cc2ccccc2)o1 (stereo not drawn) [compound 5752]	24.02%	–
Cc1nc(CC2CC2)oc1-c1nc(-c2ccc3c(c2)OCO3)no1 [compound 5962]	10.45%	–
Cc1c(C(=O)NCC2CSc3ccccc3O2)cnn1-c1ccc(C(F)(F)F)cc1 (stereo not drawn) [compound 6445]	46.11%	–
COC(=O)C(NC(=O)c1ccc(-c2ccccc2F)o1)c1ccsc1 (stereo not drawn) [compound 07099]	3.88%	–
Cc1c(C(=O)OCc2nc3ccccc3o2)cnn1Cc1ccccc1 [compound 8354]	59.03%	–
O=C1C(=O)N(C23CC4CC(CC(C4)C2)C3)C(=O)N1CC1CCC(C(F)(F)F)CC1 (stereo not drawn) [compound 8441]	47.91%	rep1_displacement: 51.8; rep2_displacement: 42.6; rep3_displacement: 49.3
COc1ccc(Cc2noc(-c3oc(CC4CC4)nc3C)n2)cc1 [compound 8861]	15.76%	–
Fc1ccc(C(F)(F)c2noc(-c3cnnn3-c3cccc(F)c3)n2)cc1 [compound 9217]	46.71%	rep1_displacement: 49.7; rep2_displacement: 46.4; rep3_displacement: 44.1
COc1ccc(OC(C)(C)c2nnc(-c3nn(C)c(=O)c4ccccc34)o2)cc1 [compound 9753]	51.55%	–
Cc1nc(CC2CC2)oc1-c1nc(Cc2ccc(OCc3ccccn3)cc2)no1 [compound 9841]	19.42%	–
